Reference: US8536168B2 (Novartis AG, priority 2007, dated 2013)
Like-named read-outs stand apart in the source and are kept apart here.

Tests used:
Gli-luciferase activity = assay: Reporter gene assay (RGA) in TMHh12 cells, antagonism of Gli-luciferase activity in the presence of a Smo agonist; assay type: cell-based
Description: Activity of the compounds was evaluated using a reporter gene assay (RGA) in TMHh12 cells.

[1] = biological target: mouse Smoothened receptor (Mus musculus, UniProt P56726); assay: Smo binding assay, displacement of radio-labeled smoothened agonist, filter binding format (mouse); settings: displacement of small molecule agonist of Smoothened, read-out: Mouse Smo bdg., IC50
Text: A Smo binding assay was developed using radio-labeled smoothened agonist for compound competition.

[2] = 25 nM small molecule Smo agonist, read-out: RGA (25 nM Smo agonist) IC50
[3] = read-out: RGA (1 nM Smo agonist) IC50, 1 nM small molecule Smo agonist

mouse Smoothened receptor, sequence (P56726 33-793): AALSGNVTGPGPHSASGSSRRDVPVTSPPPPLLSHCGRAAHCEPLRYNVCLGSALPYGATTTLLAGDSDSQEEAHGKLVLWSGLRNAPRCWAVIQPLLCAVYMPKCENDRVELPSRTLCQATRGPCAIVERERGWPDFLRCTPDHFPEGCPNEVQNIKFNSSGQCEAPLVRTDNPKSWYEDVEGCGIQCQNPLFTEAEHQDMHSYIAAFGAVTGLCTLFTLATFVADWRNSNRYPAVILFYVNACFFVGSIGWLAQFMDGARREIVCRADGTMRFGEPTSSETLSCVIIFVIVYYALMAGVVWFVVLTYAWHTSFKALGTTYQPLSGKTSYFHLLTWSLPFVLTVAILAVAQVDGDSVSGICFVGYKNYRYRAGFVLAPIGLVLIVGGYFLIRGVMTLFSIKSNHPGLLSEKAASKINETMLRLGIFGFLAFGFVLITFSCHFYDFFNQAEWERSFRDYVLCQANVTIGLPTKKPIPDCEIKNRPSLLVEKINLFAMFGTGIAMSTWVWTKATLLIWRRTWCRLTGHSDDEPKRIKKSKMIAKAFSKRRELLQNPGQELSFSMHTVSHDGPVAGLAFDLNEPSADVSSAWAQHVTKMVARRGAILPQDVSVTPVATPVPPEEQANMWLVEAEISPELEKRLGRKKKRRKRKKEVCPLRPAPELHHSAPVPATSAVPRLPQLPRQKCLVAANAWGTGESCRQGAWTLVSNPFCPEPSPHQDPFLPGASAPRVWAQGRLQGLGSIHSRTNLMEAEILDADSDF

SMILES	IC50 (Gli-luciferase activity; [2]) [nM]	IC50 (Gli-luciferase activity; [3]) [nM]	IC50 [1] [nM]
N#Cc1ccc(N2CCN(c3nnc(Cc4ccccc4)c4ccccc34)CC2)nc1 [Example 4]			1000 to 10000
c1ccc(N2CCN(c3nnc(Cc4ccncc4)c4ccccc34)CC2)cc1 [Example 6]	10000 to 40000	1000 to 10000	
CC(C)(C)c1ccc(N2CCN(c3nnc(Cc4cc(Cl)cc(Cl)c4)c4ccccc34)CC2)nc1 [Example 9]	100 to 1000	< 100	< 100
c1ccc(Cc2nnc(N3CCC(c4ccccc4)CC3)c3ccccc23)cc1 [Example 12]	1000 to 10000	1000 to 10000	10000 to 40000
c1ccc(C2CCN(c3nnc(Cc4ccncc4)c4ccccc34)CC2)cc1 [Example 13]	1000 to 10000	1000 to 10000	1000 to 10000
Cc1cc(Cc2nnc(N3CCC(c4ccccc4)CC3)c3ccccc23)ccn1 [Example 14]	1000 to 10000	1000 to 10000	
FC(F)(F)c1cnc(N2CCCN(c3nnc(Cc4ccccc4)c4ccccc34)CC2)c(Cl)c1 [Example 17]	1000 to 10000	< 100	100 to 1000
c1ccc(Cc2nnc(N3CCN(c4ccc5ccccc5n4)CC3)c3ccccc23)cc1 [Example 18]	100 to 1000	< 100	< 100
c1ccc(N2CCN(c3nnc(Cc4ccncc4)c4ccccc34)CC2)nc1 [Example 23]	10000 to 40000	1000 to 10000	10000 to 40000
Cc1ccc(N2CCN(c3nnc(Cc4ccnc(C)c4)c4ccccc34)CC2C)cc1 (centres unmarked) [Example 29]	10000 to 40000	1000 to 10000	10000 to 40000
c1ccc(Cc2nnc(N3CCN(c4ccc5ccccc5c4)CC3)c3ccccc23)cc1 [Example 31]	1000 to 10000	100 to 1000	100 to 1000
c1ccc2cc(N3CCN(c4nnc(Cc5ccncc5)c5ccccc45)CC3)ccc2c1 [Example 32]	1000 to 10000	100 to 1000	100 to 1000
Cc1cc(Cc2nnc(N3CCN(c4ccc5ccccc5c4)CC3)c3ccccc23)ccn1 [Example 33]	1000 to 10000	1000 to 10000	100 to 1000
c1ccc(Cc2nnc(N3CCN(c4ccncc4)CC3)c3ccccc23)cc1 [Example 37]	1000 to 10000	100 to 1000	1000 to 10000
CCc1cnc(N2CCCN(c3nnc(Cc4ccccc4)c4ccccc34)CC2)nc1 [Example 45]	100 to 1000	< 100	< 100
Cc1ccnc(N2CCN(c3nnc(Cc4ccccc4)c4ccccc34)CC2)n1 [Example 47]	< 100	< 100	< 100
CN(CCO)C(=O)c1ccc(N2CCN(c3nnc(Cc4ccccc4)c4ccccc34)CC2)nc1 [Example 54c, 6-[4-(4-Benzyl-phthalazin-1-yl)-piperazin-1-yl]-N-(2-hydroxy-ethyl)-N-methyl-nicotinamide]	100 to 1000	< 100	100 to 1000
O=C(NCCO)c1ccc(N2CCN(c3nnc(Cc4ccccc4)c4ccccc34)CC2)nc1 [Example 54e]	100 to 1000	< 100	100 to 1000
COCCNC(=O)c1ccc(N2CCN(c3nnc(Cc4ccccc4)c4ccccc34)CC2)nc1 [Example 54f]	100 to 1000	100 to 1000	100 to 1000
CN(C)CCNC(=O)c1ccc(N2CCN(c3nnc(Cc4ccccc4)c4ccccc34)CC2)nc1 [Example 54h]	100 to 1000	100 to 1000	
O=C(NCC1CCCCC1)c1ccc(N2CCN(c3nnc(Cc4ccccc4)c4ccccc34)CC2)nc1 [Example 54m]	100 to 1000	< 100	< 100
O=C(c1ccc(N2CCN(c3nnc(Cc4ccccc4)c4ccccc34)CC2)nc1)N1CCC(O)C1 (centres unmarked) [Example 54o]	100 to 1000	< 100	100 to 1000
O=C(c1ccc(N2CCN(c3nnc(Cc4ccccc4)c4ccccc34)CC2)nc1)N1CCSC1 [Example 54p]	100 to 1000	< 100	< 100
NCc1ccc(N2CCN(c3nnc(Cc4ccccc4)c4ccccc34)CC2)cc1 [Example 73]	1000 to 10000	100 to 1000	100 to 1000
CC(=O)NCc1ccc(N2CCN(c3nnc(Cc4ccncc4)c4ccccc34)CC2)cc1 [Example 76]	10000 to 40000	1000 to 10000	10000 to 40000
Cc1cc(N2CCN(c3ccc(C#N)cn3)CC2)nnc1Cc1ccc(Cl)cc1 [Example 93]		100 to 1000	< 100
Cc1c(Cc2ccc(F)cc2)nnc(N2CCN(c3ccc(C#N)cn3)CC2)c1C [Example 93a]	100 to 1000	100 to 1000	< 100

Other lines, results leading:

IC50 (Gli-luciferase activity; [2]) [nM]	IC50 (Gli-luciferase activity; [3]) [nM]	IC50 [1] [nM]	SMILES
100 to 1000	100 to 1000	< 100	FC(F)(F)c1ccc(N2CCCN(c3nnc(Cc4ccccc4)c4ccccc34)CC2)nc1 [Example 3]
10000 to 40000	1000 to 10000		Cc1cc(Cc2nnc(N3CCN(c4ccccc4)CC3)c3ccccc23)ccn1 [Example 11]
100 to 1000	< 100	< 100	N#Cc1ccc(N2CCCN(c3nnc(Cc4ccccc4)c4ccccc34)CC2)nc1 [Example 19]
	1000 to 10000	1000 to 10000	c1ccc2c(N3CCN(c4cnccn4)CC3)nnc(Cc3ccncc3)c2c1 [Example 20]
1000 to 10000	100 to 1000	100 to 1000	c1ccc(Cc2nnc(N3CCN(c4cnccn4)CC3)c3ccccc23)cc1 [Example 21]
10000 to 40000	1000 to 10000		Cc1cc(Cc2nnc(N3CCN(c4ccccn4)CC3)c3ccccc23)ccn1 [Example 22]
1000 to 10000	100 to 1000	100 to 1000	c1ccc(Cc2nnc(N3CCN(c4ccccn4)CC3)c3ccccc23)cc1 [Example 24]
1000 to 10000	< 100	100 to 1000	c1ccc(Cc2nnc(N3CCN(c4ncccn4)CC3)c3ccccc23)cc1 [Example 25]
	1000 to 10000	1000 to 10000	c1ccc2c(N3CCN(c4ccncc4)CC3)nnc(Cc3ccncc3)c2c1 [Example 26]
1000 to 10000	100 to 1000	1000 to 10000	Cc1ccc(N2CCN(c3nnc(Cc4ccccc4)c4ccccc34)CC2C)cc1 (centres unmarked) [Example 27]
1000 to 10000	1000 to 10000	1000 to 10000	Cc1ccc(N2CCN(c3nnc(Cc4ccncc4)c4ccccc34)CC2C)cc1 (centres unmarked) [Example 28]
1000 to 10000	100 to 1000	1000 to 10000	Clc1ccc(N2CCN(c3nnc(Cc4ccccc4)c4ccccc34)CC2)cc1Cl [Example 30]
1000 to 10000	100 to 1000	1000 to 10000	c1ccc(Cc2nnc(N3CCN(c4cccc5ccccc45)CC3)c3ccccc23)cc1 [Example 34]
1000 to 10000	1000 to 10000		Cc1cc(Cc2nnc(N3CCN(c4cccc5ccccc45)CC3)c3ccccc23)ccn1 [Example 35]
1000 to 10000	100 to 1000	1000 to 10000	c1ccc2c(N3CCN(c4nnc(Cc5ccncc5)c5ccccc45)CC3)cccc2c1 [Example 36]
1000 to 10000	1000 to 10000	10000 to 40000	Cc1ccccc1N1CCN(c2nnc(Cc3ccccc3)c3ccccc23)CC1 [Example 38]

IC50 (Gli-luciferase activity; [2]) [nM]	IC50 (Gli-luciferase activity; [3]) [nM]	IC50 [1] [nM]	SMILES
100 to 1000	< 100	100 to 1000	c1ccc(Cc2nnc(N3CCCN(c4ncccn4)CC3)c3ccccc23)cc1 [Example 40]
100 to 1000	< 100	100 to 1000	Cc1ccnc(N2CCCN(c3nnc(Cc4ccccc4)c4ccccc34)CC2)n1 [Example 41]
100 to 1000	< 100	< 100	CCCc1cnc(N2CCN(c3nnc(Cc4ccccc4)c4ccccc34)CC2)nc1 [Example 42]
< 100	< 100	< 100	CCc1cnc(N2CCN(c3nnc(Cc4ccccc4)c4ccccc34)CC2)nc1 [Example 43]
100 to 1000	< 100	< 100	CCCc1cnc(N2CCCN(c3nnc(Cc4ccccc4)c4ccccc34)CC2)nc1 [Example 44]
100 to 1000	< 100	100 to 1000	COCCN(C)C(=O)c1ccc(N2CCN(c3nnc(Cc4ccccc4)c4ccccc34)CC2)nc1 [Example 54g]
100 to 1000	< 100	< 100	O=C(NCc1ccccc1)c1ccc(N2CCN(c3nnc(Cc4ccccc4)c4ccccc34)CC2)nc1 [Example 54l]
100 to 1000	< 100	< 100	CCCNC(=O)c1ccc(N2CCN(c3nnc(Cc4ccccc4)c4ccccc34)CC2)nc1 [Example 54n]
100 to 1000	< 100		NCc1ccc(N2CCN(c3nnc(Cc4ccccc4)c4ccccc34)CC2)nc1 [Example 71]
10000 to 40000	1000 to 10000		NCc1ccc(N2CCN(c3nnc(Cc4ccncc4)c4ccccc34)CC2)cc1 [Example 72]
100 to 1000	< 100		CCN1CCOc2cc3c(cc21)Oc1cc2c(cc1=N3)OCC[N+]=2CCCCCC(=O)NCc1ccc(N2CCN(c3nnc(Cc4ccccc4)c4ccccc34)CC2)nc1 [Example 74]
1000 to 10000	100 to 1000	100 to 1000	CC(=O)NCc1ccc(N2CCN(c3nnc(Cc4ccccc4)c4ccccc34)CC2)cc1 [Example 75]
1000 to 10000	100 to 1000	100 to 1000	O=C(NCc1ccc(N2CCN(c3nnc(Cc4ccccc4)c4ccccc34)CC2)cc1)OCc1ccccc1 [Example 77]
10000 to 40000	1000 to 10000	1000 to 10000	O=C(NCc1ccc(N2CCN(c3nnc(Cc4ccncc4)c4ccccc34)CC2)cc1)OCc1ccccc1 [Example 78]
10000 to 40000	1000 to 10000		N#Cc1ccc(N2CCN(c3cnc(Cc4cccc(C#N)c4)c4ccccc34)CC2)nc1 [Example 80]
1000 to 10000	100 to 1000		COC(=O)CC(SCC(=O)NCc1ccc(N2CCN(c3nnc(Cc4ccccc4)c4ccccc34)CC2)nc1)C(=O)OC (centres unmarked) [Example 215]
